Reference: patent publication US6413761B2, “Decaprenyl diphosphate synthetase gene” (Toyota Jidosha Kabushiki Kaisha, priority 1997, dated 2002)

System: DPP synthetase
Experiment: Substrate specificity of the DPP synthetase on various allylic primers ([14C]IPP incorporation)
Format: biochemical, Paracoccus denitrificans
Conditions: for Enzyme Activity: allylic primer 25 μM, [14C]IPP 125 μM, 37° C., 1 hour; for Activity of the DPP synthetase with the allylic substrate (in words): substance used as allylic primer substrate
Protocol: A 200 μl reaction solution shown below was prepared using an appropriate amount of the crude enzyme extract, various allylic primers and [^1-14C]IPP (54 or 57 Ci/mol; Amersham).
The solution was incubated at 37° C. for 1 hour to allow an enzyme reaction. Then, 200 μl of saturated aqueous NaCl solution and 1 ml of n-BuOH saturated with saturated aqueous NaCl solution were added thereto and agitated well. The resultant solution was centrifuged to extract the reaction products. 200 μl of the BuOH layer was collected, and 3 ml of Clear Sol was added thereto. Then, the enzyme activity was determined by measuring the radioactivity in the BuOH extract with a liquid scintillation counter. The enzyme activity was expressed in unit, one unit being the amount of IPP (nmol) taken into the reaction products per 1 minute.
The substrate specificity of this DPP synthetase has been examined on various allyl primers. The unit of enzyme activity is as defined above.

| SMILES | Enzyme Activity (+Triton X-100 (0.5%)) | Activity of the DPP synthetase with the allylic substrate (in words) | Enzyme Activity (−Triton X-100) |
| --- | --- | --- | --- |
| CC(C)=CCC/C(C)=C/CC/C(C)=C/CC/C(C)=C/COP(=O)(O)OP(=O)(O)O [EEE-GGPP, EEE-geranylgeranyl diphosphate] | 35.33 ×10^−3 unit | strong activity | 3.22 ×10^−3 unit |
| CC(C)=CCC/C(C)=C/COP(=O)(O)OP(=O)(O)O [GPP, geranyl diphosphate] | 19.8 ×10^−3 unit | slight activity | 1.78 ×10^−3 unit |
| CC(C)=CCC/C(C)=C/CC/C(C)=C/CC/C(C)=C\COP(=O)(O)OP(=O)(O)O [ZEE-GGPP, ZEE-geranylgeranyl diphosphate] | 3.68 ×10^−3 unit | little activity | 2.47 ×10^−3 unit |
